# Reference: patent publication EP4772178A1, “ANTI-TUMOR USE OF ACT001 COMPOSITION” (Accendatech Co. Ltd., priority 2023, dated 2025)
# Several values for one entry are separate records, joined by “and”; a condition that tells them apart may be missing. Identical values can stand only once.
# Experiments:
# [1] = system: peripheral blood suppressive Treg lymphocytes; experiment: ACT001-CN-002 Phase II clinical trial, exploratory endpoint: peripheral blood Treg ratio; type: in vivo, patients; conditions: one line per patient; for Peripheral blood Treg ratio (before treatment): first figure of the cell; for Peripheral blood Treg ratio (after treatment): second figure of the cell
# [2] = ACT001-CN-002 Phase II clinical trial, safety assessment (peripheral blood lymphopenia)
# Method: GBM patients who relapsed after standard treatment were randomly assigned to three cohorts of an ACT001-CN-002 Phase II clinical trial: • Cohort A: ACT001 monotherapy (400 mg, BID); • Cohort B: ACT001 and TMZ (temozolomide) were administered in combination at doses of 400mg, BID (ACT001) and 200 mg/m^2/day (TMZ, administered on days one to five of each 28-day course of treatment), respectively; • Cohort C: CCNU monotherapy (lomustine, 100-130 mg/m^2/dose, once every six weeks, 4 doses at most) or TMZ monotherapy (the dosage level and the route of administration were the same as those for cohort B).
# The trial endpoints were post-dose progression-free survival (iRANO criteria), one-year survival rate, and safety assessment: the number of times each safety event occurred (e.g., the incidence of peripheral blood lymphopenia). The exploratory endpoints included changes in the peripheral blood suppressive Treg lymphocyte ratio.
# GBM = experiment: ACT001-CN-002 Phase II clinical trial, efficacy (best response, iRANO criteria); type: in vivo, patients; conditions: one line per patient; duration of stable disease
SMILES,Peripheral blood Treg ratio (before treatment) [1],Peripheral blood Treg ratio (after treatment) [1],Grade 3 or higher lymphopenia ([2]; one line per patient),Best response time (months) (GBM),"Grade 3 or higher lymphopenia ([2]; human, in vivo)"
"O=NN(CCCl)C(=O)NC1CCCCC1 [CCNU, lomustine]",6.6 and 5.6 and 11.4,12.4 and 7.3 and 9.5,No (2×) and Yes,6 months,
CC1=C2CC[C@@](C)(O)[C@@H]2[C@H]2OC(=O)[C@@H](CN(C)C)[C@@H]2CC1 [ACT001],3.2 and 8.7 and 5.9 and 6.9 and 2.4,8.4 and 6.5 and 6.7 and 1.8 and 9.4,,9 months and 4 months,No
"Cn1nnc2c(C(N)=O)ncn2c1=O [TMZ, temozolomide]",4.3 and 7.1,14.3 and 7.5,,7 months and 4 months,
